From PubChem BioAssay AID624491 (Broad Institute, 2012)
Calls of active or inactive are those of the source.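 How the source made its calls: active means fitted curve crossing a set activation limit at or below the highest valid dose tested; inconclusive means flat fit at 30 to 70% activation, or poor fit; inactive means the rest, including signal decreases.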

test system: D54 ERlucT glycosylation luciferase reporter, luminescence, 24 h; assay: blockers of NLG process in reporter cells – D54 ERlucT cells, luminescence, cherry-picks, dose response (AID 624491);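 further: signal gain reflects blocked N-linked glycosylation of a luciferase reporter; actives raise luciferase signal so AC26 marks activators of the reporter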

Question: CCc1ccc(C2c3[nH]c4ccccc4c3CCN2C(=O)c2ccc(=O)n(C)n2)cc1 (stereo not given) was tested. Which AC26 did it give?
Answer: 1330 nM

Question: With CN1CCN(C(=O)/C=C/c2ccc([N+](=O)[O-])o2)CC1 as the molecule, how does the AC26 read?
Answer: 3930 nM

Question: How did the AC26 turn out when Cc1cc([N+](=O)[O-])ccc1-c1ccc(/C=N/NC(=O)c2ccc(Br)o2)o1 was run?
Answer: 4510 nM

Question: For COc1ccc(C(=O)c2ccc(OC)c(N)c2)cc1N, which AC26 is on record?
Answer: 143 nM

Question: Cn1cnc([N+](=O)[O-])c1S(=O)(=O)c1cccc(Cl)c1 was tested. Which AC26 did it give?
Answer: 1200 nM

Question: CCOC(=O)Nc1nc2ccc(Cn3cccc3)cc2[nH]1 was tested. Which AC26 did it give?
Answer: 674 nM

Question: For COc1cc(NC(=O)c2ccccc2OCc2ccccc2)cc(OC)c1OC, which AC26 is on record?
Answer: 1030 nM

Question: Which AC26 does the source give for CCOc1cc(/C=C/C(=O)c2ccc3c(c2)OCCO3)ccc1OCC(=O)N(C)C here?
Answer: 3700 nM

Question: COC(=O)Nc1nc(-c2ccccc2)c(C(=O)c2ccc(Cl)cc2)s1 was tested. Which AC26 did it give?
Answer: 3.16 nM

Question: CNc1ccc(/C=C/C(=O)c2cccc3ccccc23)cc1[N+](=O)[O-] was tested. Which AC26 did it give?
Answer: 2810 nM

Question: Which AC26 does the source give for CCN(CC)CCNc1ccc(CO)c2oc3cc(Cl)ccc3c(=O)c12 here?
Answer: 2820 nM

Question: O=C(CSc1c2c(nc3ccc(Cl)cc13)CCCC2)N1CCN(C(=O)c2ccco2)CC1 was tested. Which AC26 did it give?
Answer: 7690 nM

Question: Which AC26 does the source give for COc1cc(-c2cc3nc(NCCOc4ccccc4)ccn3n2)cc(OC)c1OC here?
Answer: 2350 nM

Question: O=c1[nH]c(=O)n([C@H]2C[C@H](O)[C@@H](CO)O2)cc1I was tested. Which AC26 did it give?
Answer: 5190 nM

Question: Which AC26 does the source give for COc1ccc(Nc2nc(-c3sc(C)nc3C)cs2)c(OC)c1 here?
Answer: 1240 nM

Question: Fc1ccc(CSc2ccc3nnc(-c4cccnc4)n3n2)cc1 was tested. Which AC26 did it give?
Answer: 403 nM

Question: Which AC26 does the source give for COc1ccccc1CCC(=O)Nc1ccc2c(c1)c(=O)n(C)n2-c1cccs1 here?
Answer: 124 nM

Question: For Cc1ccc(Nc2nc(N)nc(CN3CCN(Cc4ccccc4)CC3)n2)cc1Cl, which AC26 is on record?
Answer: 110 nM

Question: COc1ccc(-c2cc(C)no2)cc1S(=O)(=O)Nc1ccccc1 was tested. Which AC26 did it give?
Answer: 3740 nM

Question: With CCc1ccc(Oc2coc3cc(OCC(=O)Nc4cc(C)ccc4C)ccc3c2=O)cc1 as the molecule, how does the AC26 read?
Answer: 4860 nM

Question: With COc1cc(NC(=O)c2ccc(-c3c(C)noc3C)c3ccoc23)cc(OC)c1OC as the molecule, how does the AC26 read?
Answer: 3770 nM

Question: For CCOC(=O)C1CCN(c2c(N3CCN(Cc4ccccc4)CC3)c(=O)c2=O)CC1, which AC26 is on record?
Answer: 1810 nM

Question: How did the AC26 turn out when Cc1cc(Br)cc2c(C(=O)Nc3c(C)n(C)n(-c4ccccc4)c3=O)cc(-c3cccs3)nc12 was run?
Answer: 3650 nM

Question: Which AC26 does the source give for CCCCC[C@H](O)/C=C/[C@@H]1[C@@H](C/C=C\CCCC(=O)OC)[C@@H](O)C[C@H]1O here?
Answer: 10.5 nM

Question: How did the AC26 turn out when CC(=O)c1cccc(-c2ccnc3c2CC(C(=O)NCc2ccco2)O3)c1 (stereo not given) was run?
Answer: 967 nM

Question: Which AC26 does the source give for OCCNc1c2ccccc2nc2ccccc12 here?
Answer: 907 nM

Question: For CN(C)S(=O)(=O)c1ccc(N2CCCC2)c(C(=O)Nc2nc3ccc(F)cc3s2)c1, which AC26 is on record?
Answer: 1540 nM

Question: For COc1cc2c(cc1OC)C(c1ccccc1)N(C(=O)c1ccccc1F)CC2 (stereo not given), which AC26 is on record?
Answer: 1100 nM

Question: With CCOc1ccc(Nc2c3ccccc3nc3ccccc23)cc1 as the molecule, how does the AC26 read?
Answer: 365 nM

Question: CCn1c2ccccc2c2cc(NC(=O)COC(=O)c3ccc(O)cc3)ccc21 was tested. Which AC26 did it give?
Answer: 5820 nM

Question: How did the AC26 turn out when Cc1ccc(-n2nc(C)c(NC(=O)CCl)c2C)cc1C was run?
Answer: 653 nM

Question: How did the AC26 turn out when COc1ccc(C)cc1NC(=O)CCCNC(=O)Cn1cnc2sc(C)c(C)c2c1=O was run?
Answer: 7090 nM

Question: With COc1cc(OC)c(C2=NOC(C(=O)NCc3cccs3)C2)cc1Cl (stereo not given) as the molecule, how does the AC26 read?
Answer: 5250 nM

Question: How did the AC26 turn out when O=C(c1cn(Cc2ccccc2)nc1-c1ccccc1)N1CCN(c2ccccn2)CC1 was run?
Answer: 999 nM

Question: Which AC26 does the source give for COc1ccc(C(=O)/C=C2/C(=O)Nc3ccccc32)c(OC)c1 here?
Answer: 4070 nM

Question: With CCOC(=O)[C@H]1[C@H]2COc3ccc(OC)cc3[C@@H]2N2C(=O)c3cc(OC)c(OC)cc3NC(=O)[C@@]12C as the molecule, how does the AC26 read?
Answer: 300 nM

Question: Which AC26 does the source give for CN(C)CCCN1C(=O)c2cccc3cccc(c23)C1=O here?
Answer: 3880 nM

Question: For COc1ccc2oc(-c3ccccc3[N+](=O)[O-])cc(=O)c2c1, which AC26 is on record?
Answer: 568 nM

Question: COC(=O)c1[nH]c2cc(OC)c(OC)cc2c1/C=N/Nc1ccccc1 was tested. Which AC26 did it give?
Answer: 6360 nM

Question: How did the AC26 turn out when CN(C)S(=O)(=O)c1ccc(N2CCCC2)c(C(=O)Nc2nccs2)c1 was run?
Answer: 549 nM

Question: For COc1ccc(/C=C2\SC(=O)N(CCNC(=O)C3=COCCO3)C2=O)cc1, which AC26 is on record?
Answer: 658 nM

Question: With Cc1ccc(Nc2nnc(SCC(=O)Nc3ncc(S(=O)(=O)c4ccc([N+](=O)[O-])cc4)s3)s2)cc1 as the molecule, how does the AC26 read?
Answer: 9030 nM

Question: With Cc1ccc(C(=O)NC(=C(Cl)Cl)S(=O)(=O)c2ccc(Cl)cc2)cc1 as the molecule, how does the AC26 read?
Answer: 3660 nM

Question: How did the AC26 turn out when COc1cccc(C(N)c2nc(-c3csc4ccccc34)cs2)c1 (stereo not given) was run?
Answer: 3590 nM

Question: With COC(=O)C1=C(c2cc3ccccc3o2)C[C@@H]2CC[C@H]1N2C(=O)N1CCOCC1 as the molecule, how does the AC26 read?
Answer: > 19500 nM (inactive)

Question: Which AC26 does the source give for Cc1ccc(NC(=O)c2cc(S(=O)(=O)N(C)C)ccc2N2CCCC2)cc1F here?
Answer: 109 nM

Question: With Cc1ccc(NCCN(C)C)c2c(=O)c3cc(O)ccc3sc12 as the molecule, how does the AC26 read?
Answer: 84.5 nM

Question: Which AC26 does the source give for COc1ccccc1N1CC(O)=C(c2nc3ccccc3c(=O)[nH]2)C1=N here?
Answer: 1320 nM

Question: O=C(Nc1ncccc1O)c1ccc(S(=O)(=O)Nc2ccccc2)cc1 was tested. Which AC26 did it give?
Answer: 2190 nM

Question: With COc1ccc(-n2c(=S)[nH]c3cc(C(=O)Nc4ccc(F)cc4)ccc3c2=O)c(OC)c1 as the molecule, how does the AC26 read?
Answer: 4550 nM

Question: How did the AC26 turn out when O=C(CSc1nnc(-c2cc3ccccc3cc2O)n1Cc1ccco1)N1CCc2ccccc2C1 was run?
Answer: 702 nM

Question: How did the AC26 turn out when CC(C)Sc1ccccc1C(=O)Nc1ccc2c(c1)n(C)c(=O)n2C was run?
Answer: 4830 nM

Question: With COc1ccc(NC(=O)C(=O)NCC2CCCN2S(=O)(=O)c2cccs2)cc1 (stereo not given) as the molecule, how does the AC26 read?
Answer: 5020 nM

Question: For Cn1c(SCC(=O)c2ccc(F)cc2)ncc(C(=O)Nc2ccccc2)c1=O, which AC26 is on record?
Answer: 4770 nM

Question: With CCOc1ccc(NC(=S)NC(=O)/C=C/c2ccc(C)cc2)c([N+](=O)[O-])c1 as the molecule, how does the AC26 read?
Answer: 3930 nM
